Values of other authors as cited in patent publication US7632828B2, “Gram-positive carbapenem antibacterials and processes for their preparation” (FOB Synthesis, Inc., priority 2004, dated 2009).

Tests used:
[1] = molecular target: T1, mammalian β-lactamase renal dehydropeptidase-I (DHP-I) (Homo sapiens, UniProt P16444)
T1 sequence (P16444 17-385): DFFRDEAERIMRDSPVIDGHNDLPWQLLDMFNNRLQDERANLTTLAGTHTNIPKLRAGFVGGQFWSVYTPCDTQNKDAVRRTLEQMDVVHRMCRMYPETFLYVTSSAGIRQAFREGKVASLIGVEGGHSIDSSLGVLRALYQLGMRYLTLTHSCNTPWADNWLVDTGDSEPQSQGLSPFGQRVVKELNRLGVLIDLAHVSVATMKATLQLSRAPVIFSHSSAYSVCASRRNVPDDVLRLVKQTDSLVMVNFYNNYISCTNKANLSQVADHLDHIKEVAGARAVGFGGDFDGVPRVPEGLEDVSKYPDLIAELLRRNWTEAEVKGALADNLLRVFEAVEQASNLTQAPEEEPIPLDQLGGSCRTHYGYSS

[2] = test subjects
[3] = due to its lactam nucleus and amino acid configuration
kidney dehydropeptidase = molecular target: T2, kidney dehydropeptidase (Homo sapiens, UniProt P16444)
T2 sequence (P16444 17-385): T1 sequence (P16444 17-385)

C[C@@H](O)[C@H]1C(=O)N2C(C(=O)O)=C(SCCN=CN)C[C@H]12 [imipenem, N-formimidoyl thienamycin]
stability to renal dehydropeptidase-I (DHP-I) [1]: instability
urinary tract recovery [2]: poor urinary tract recovery

C[C@@H](O)[C@H]1C(=O)N2C(C(=O)O)=C(SCCN)C[C@H]12 [thienamycin]
activity against Pseudomonas spp. (Pseudomonas spp.): active against Pseudomonas spp.
chemical stability [3]: chemically unstable

Biapenem
stability against hydrolysis by kidney dehydropeptidase (kidney dehydropeptidase): stability against hydrolysis by kidney dehydropeptidase
potency across bacterial spectrum (wide bacterial spectrum): exhibits potency across a wide bacterial spectrum

meropenem
activity against Gram-negative bacteria (Gram-negative bacteria): active against a large number of Gram-negative bacteria
